From ChEMBL document CHEMBL3085760, “Novel polyamine analogues: from substrates towards potential inhibitors of monoamine oxidases” (Eur J Med Chem, 2013)
Active and inactive are the calls of the source. The rule behind the calls is not given here.

Legend:
[1] = molecular target: T1, Amine oxidase [copper-containing] 3 (Homo sapiens) (UniProt Q16853); test: Ratio of relative Vmax to Km for recombinant human VAP-1 assessed as hydrogen peroxide generation rate using benzylamine as substrate at 200 uM preincubated for 30 mins by Amplex Red assay
T1 sequence (whole entry): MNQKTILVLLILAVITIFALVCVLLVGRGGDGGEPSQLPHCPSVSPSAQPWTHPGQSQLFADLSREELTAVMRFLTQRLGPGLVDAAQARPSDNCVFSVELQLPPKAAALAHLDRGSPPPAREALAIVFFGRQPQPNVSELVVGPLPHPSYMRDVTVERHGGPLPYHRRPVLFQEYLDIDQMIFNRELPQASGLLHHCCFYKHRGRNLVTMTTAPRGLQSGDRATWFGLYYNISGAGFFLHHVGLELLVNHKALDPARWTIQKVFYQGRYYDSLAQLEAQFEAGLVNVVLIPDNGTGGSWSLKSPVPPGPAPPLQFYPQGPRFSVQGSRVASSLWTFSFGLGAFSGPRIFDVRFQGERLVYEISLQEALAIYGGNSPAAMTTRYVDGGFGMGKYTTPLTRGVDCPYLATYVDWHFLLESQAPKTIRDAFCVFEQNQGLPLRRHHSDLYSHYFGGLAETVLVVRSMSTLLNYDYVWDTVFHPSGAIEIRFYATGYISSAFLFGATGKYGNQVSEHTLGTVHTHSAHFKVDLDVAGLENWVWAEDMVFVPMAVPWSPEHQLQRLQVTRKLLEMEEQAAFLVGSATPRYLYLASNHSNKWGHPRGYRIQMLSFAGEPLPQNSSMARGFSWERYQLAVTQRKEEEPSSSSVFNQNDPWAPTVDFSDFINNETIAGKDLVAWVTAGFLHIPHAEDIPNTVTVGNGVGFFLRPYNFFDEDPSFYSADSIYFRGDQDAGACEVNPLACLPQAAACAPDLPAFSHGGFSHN

[2] = molecular target: T1, Amine oxidase [copper-containing] 3 (Homo sapiens); test: Activity at recombinant human VAP-1 assessed as hydrogen peroxide generation rate per min/mg using benzylamine as substrate at 200 uM preincubated for 30 mins by Amplex Red assay relative to control
[3] = molecular target: T1, Amine oxidase [copper-containing] 3 (Homo sapiens); test: Ratio of relative Vmax to Km for recombinant human VAP-1 assessed as hydrogen peroxide generation rate preincubated for 30 mins by Amplex Red assay relative to control
[4] = molecular target: T1, Amine oxidase [copper-containing] 3 (Homo sapiens); test: Activity at recombinant human VAP-1 assessed as hydrogen peroxide generation rate per min/mg preincubated for 30 mins by Amplex Red assay relative to control
Homo sapiens [5] = organism: Homo sapiens; test: Selectivity ratio of Ki for recombinant human MAO-A to Ki for recombinant human MAO-B
[6] = molecular target: T1, Amine oxidase [copper-containing] 3 (Homo sapiens); test: Activity at recombinant human VAP-1 assessed as hydrogen peroxide generation rate preincubated for 30 mins by Amplex Red assay
Homo sapiens [7] = organism: Homo sapiens; test: Selectivity ratio of Ki for recombinant human MAO-B to Ki for recombinant human MAO-A

Row | fold change (FC) [1] | fold change (FC) [2] | fold change (FC) [3] | fold change (FC) [4] | Ratio Ki (Homo sapiens [5]) | Activity [6] | Ratio Ki (Homo sapiens [7]) | SMILES
1 | 0.96 | 1 |  |  |  |  |  | NCCCNCCCCNCCCN
2 |  |  | 80 | 1.88 |  |  |  | NCCCCCCCCCCCCNCc1ccccc1
3 |  |  | 35 | 1.77 |  |  |  | NCCCCCCCCCCCCNCc1cccs1
4 | 0.35 | 0.89 |  |  |  |  |  | c1ccc(CNCCCCCCCCCCCCNCc2ccccc2)cc1
5 | 0.6 | 1 |  |  | 9.8 | inactive |  | NCCCNCCCCNCCCNCc1cccs1
6 | 0.69 | 0.85 |  |  |  | inactive |  | NCCCNCCCCNCCCNCc1cccnc1
7 |  |  | 0.87 | 0.71 |  |  |  | NCCCOCCCCOCCCNCc1cccs1
8 |  |  | 0.09 | 0.38 |  |  |  | NCCCCCCCCNCCCNCc1cccs1
9 |  |  | 30 | 0.73 |  |  |  | CN(CCCCCCCCCCCCN)Cc1ccccc1
10 | 0.66 | 0.69 |  |  |  |  | 1.8 | CN(CCCCCCCCCCCCN=C=S)Cc1ccccc1
11 | 0.66 | 0.77 |  |  |  |  | 1.7 | NCCCNCCCCNCCCNCc1ccccc1
12 | 0.97 | 1.12 |  |  |  | inactive |  | NCCCNCCCCNCCCNCc1ccc2ccccc2c1
